We go through 3 compounds from ChEMBL document CHEMBL3120161, “Antimycobacterial activity of nitrogen heterocycles derivatives: bipyridine derivatives. Part III” (Eur J Med Chem, 2014).

Common to all, as to format: functional
In assay [1] the test system is Mycobacterium tuberculosis. Kind of assay: Antimycobacterial activity against ofloxacin-resistant Mycobacterium tuberculosis H37Rv SRI 4000 at MIC after 7 days by broth microdilution assay relative to control.
The subject of assay [2] is Mycobacterium tuberculosis. Kind of assay: Antimycobacterial activity against ofloxacin-resistant Mycobacterium tuberculosis H37Rv SRI 4000 after 7 days by broth microdilution assay. The following applies: H37Rv SRI 4000, 168 h. Background: In broth dilution the organism is exposed to a series of concentrations in liquid medium.
Assay [3] deals with Mycobacterium tuberculosis. The assay is described as follows: Antimycobacterial activity against rifampin-resistant Mycobacterium tuberculosis H37Rv SRI 1367 at MIC after 7 days by broth microdilution assay relative to control.
Assay [4] relates to Mycobacterium tuberculosis. The assay is described as follows: Antimycobacterial activity against rifampin-resistant Mycobacterium tuberculosis H37Rv SRI 1367 after 7 days by broth microdilution assay. Conditions: H37Rv SRI 1367, 168 h.
Assay [5] concerns Mycobacterium tuberculosis. Kind of assay: Antimycobacterial activity against isoniazid-resistant Mycobacterium tuberculosis H37Rv SRI 1369 at MIC after 7 days by broth microdilution assay relative to control.
The test system of assay [6] is Mycobacterium tuberculosis. The assay is described as follows: Antimycobacterial activity against isoniazid-resistant Mycobacterium tuberculosis H37Rv SRI 1369 after 7 days by broth microdilution assay. Conditions: H37Rv SRI 1369, 168 h.

Each structure is given as a SMILES string. ≈ marks a conversion by molar mass, not a printed value.

The term MIC denotes the lowest concentration found to suppress growth. Read a high MIC as a less susceptible organism. Turning to `CCOC(=O)c1cc(C(=O)c2ccccc2)n2ccc(-c3cc[n+](CC(=O)c4ccc(OC)cc4)cc3)cc12.[Br-]`, the “inhibition (INH)” value in assay [1] is given as 61%; in assay [3] it was 65%; in assay [5], 60%. Also, the values for the MIC in assay [2], in assay [4] and in assay [6] were 1.17 mg/L, 1.17 mg/L and 4.69 mg/L, respectively.
Consider `NNC(=O)c1ccncc1` [ISONIAZID], for which, in assay [3], the “inhibition (INH)” value stood at 92%. Besides, the MIC in assay [4] was 0.02 mg/L (≈ 0.146 µM).
Take `CO[C@H]1/C=C/O[C@@]2(C)Oc3c(C)c(O)c4c(O)c(c(/C=N/N5CCN(C)CC5)c(O)c4c3C2=O)NC(=O)/C(C)=C\C=C\[C@H](C)[C@H](O)[C@@H](C)[C@@H](O)[C@@H](C)[C@H](OC(C)=O)[C@@H]1C` [RIFAMPIN]: the “inhibition (INH)” value in assay [1] is listed as 80%; in assay [5] it was 56%. The figures for the MIC in assay [2] and in assay [6] were 0.05 mg/L (≈ 0.0608 µM) and 0.02 mg/L (≈ 0.0243 µM), respectively.
